Among the data in US20120178766A1, “FUROPYRIMIDINEDIONE DERIVATIVES AS TRPAI MODULATORS” (priority 2009, published 2012) are IC50 and inhibition values, retold here.

As a reminder, the IC50 is the concentration needed to halve the response being measured. What is called inhibition is the share of the control response that was lost under treatment.

For one assay, the target named is T1, human TRPA1 (Homo sapiens, UniProt O75762).
T1 construct: expressed in transfected cells; host or cells: CHO cells (G-418 selection)
T1 sequence (O75762 whole entry): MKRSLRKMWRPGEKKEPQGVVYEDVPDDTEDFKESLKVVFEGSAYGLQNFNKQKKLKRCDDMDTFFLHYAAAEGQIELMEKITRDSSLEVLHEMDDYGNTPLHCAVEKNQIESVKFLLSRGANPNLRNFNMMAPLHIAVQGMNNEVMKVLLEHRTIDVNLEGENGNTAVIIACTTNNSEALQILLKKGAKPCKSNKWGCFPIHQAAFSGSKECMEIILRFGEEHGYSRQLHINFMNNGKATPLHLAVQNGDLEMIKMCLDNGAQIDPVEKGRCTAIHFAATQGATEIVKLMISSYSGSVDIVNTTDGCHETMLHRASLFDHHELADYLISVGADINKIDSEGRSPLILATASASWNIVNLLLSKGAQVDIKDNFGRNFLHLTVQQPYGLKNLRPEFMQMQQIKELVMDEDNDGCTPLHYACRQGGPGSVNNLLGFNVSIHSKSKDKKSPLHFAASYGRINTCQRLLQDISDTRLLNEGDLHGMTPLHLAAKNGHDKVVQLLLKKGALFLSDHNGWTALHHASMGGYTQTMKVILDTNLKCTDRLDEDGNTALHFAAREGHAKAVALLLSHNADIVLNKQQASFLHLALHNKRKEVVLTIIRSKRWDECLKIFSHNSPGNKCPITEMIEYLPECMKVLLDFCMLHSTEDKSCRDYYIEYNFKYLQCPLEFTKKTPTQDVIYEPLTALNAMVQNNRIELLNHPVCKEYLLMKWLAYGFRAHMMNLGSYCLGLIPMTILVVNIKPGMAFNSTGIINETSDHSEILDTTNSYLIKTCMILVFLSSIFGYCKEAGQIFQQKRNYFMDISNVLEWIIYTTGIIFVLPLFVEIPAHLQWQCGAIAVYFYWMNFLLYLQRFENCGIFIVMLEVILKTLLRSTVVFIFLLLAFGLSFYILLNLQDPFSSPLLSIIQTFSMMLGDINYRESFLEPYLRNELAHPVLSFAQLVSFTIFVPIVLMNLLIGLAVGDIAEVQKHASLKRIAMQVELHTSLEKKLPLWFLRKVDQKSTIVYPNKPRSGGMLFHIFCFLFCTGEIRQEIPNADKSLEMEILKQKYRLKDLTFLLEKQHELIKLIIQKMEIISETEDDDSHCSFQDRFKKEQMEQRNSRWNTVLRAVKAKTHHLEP
Nature of the assay: 45Calcium uptake assay: inhibition of AITC induced cellular uptake of radioactive calcium, human TRPA1 expressing CHO cells. The class given is cell-based. The conditions noted are these: AITC 30 μM; for inhibition at 1 µM: 1.0 μM compound, read-out: human TRPA1 Percentage inhibition at 1.0 μM; for inhibition at 10 µM: 10.0 μM compound, read-out: human TRPA1 Percentage inhibition at 10.0 μM. The source says: The illustrative examples of the present invention are screened for TRPA1 activity according to a modified procedure described in (a) Tóth, A. et al. Life Sciences, 2003, 73, 487-498. (b) McNamara C, R. et al, Proc. Natl. Acad. Sci. U.S.A., 2007, 104, 13525-13530. The screening of the compounds can be carried out by other methods and procedures known to persons skilled in the art.
(§1) Screening for TRPA1 Antagonist Using the ^45Calcium Uptake Assay:
(§2) The inhibition of TRPA1 receptor activation was measured as inhibition of allyl isothiocyanate (AITC) induced cellular uptake of radioactive calcium.
Test compounds were dissolved in 100% DMSO to prepare 10 mM stock and then diluted using plain medium with 0.1% BSA and 1.8 mM CaCl2 to get the desired concentration. The final concentration of DMSO in the reaction was 0.5% (v/v). Human TRPA1 expressing CHO cells were grown in F-12 DMEM medium with 10% FBS, 1% penicillin-streptomycin solution, and 400 μg/ml of G-418. Rat TRPA1 expressing CHO cells were grown in F-12 DMEM medium with 10% FBS, 1% penicillin-streptomycin solution, and 400 μg/ml of Zeocin. Cells were seeded 24 h prior to the assay in 96 well plates so as to get ˜50,000 cells per well on the day of experiment. Cells were treated with the test compounds for 10 minutes followed by the addition of AITC at a final concentration of 30 μM (for human TRPA1) and/or 10 μM (for rat TRPA1) and 5 μCi/ml ^45Ca^+2 for 3 minutes. Cells were washed and lysed using a buffer containing 1% Triton X-100, 0.1% deoxycholate and 0.1% SDS. Radioactivity in the lysate was measured in a Packard TopCount after addition of liquid scintillant. (Toth et al, Life Sciences (2003) 73, 487-498; McNamara C R et al, Proceedings of the National Academy of Sciences, (2007) 104, 13525-13530).
(§3) Concentration response curves were plotted as a % of maximal response obtained in the absence of test antagonist. IC50 values can be calculated from concentration response curve by nonlinear regression analysis using GraphPad PRISM software.

The target in a further assay is T2, rat TRPA1 (Rattus norvegicus, UniProt Q6RI86).
T2 construct: expressed in transfected cells; host or cells: CHO cells (Zeocin selection)
T2 sequence (Q6RI86 whole entry): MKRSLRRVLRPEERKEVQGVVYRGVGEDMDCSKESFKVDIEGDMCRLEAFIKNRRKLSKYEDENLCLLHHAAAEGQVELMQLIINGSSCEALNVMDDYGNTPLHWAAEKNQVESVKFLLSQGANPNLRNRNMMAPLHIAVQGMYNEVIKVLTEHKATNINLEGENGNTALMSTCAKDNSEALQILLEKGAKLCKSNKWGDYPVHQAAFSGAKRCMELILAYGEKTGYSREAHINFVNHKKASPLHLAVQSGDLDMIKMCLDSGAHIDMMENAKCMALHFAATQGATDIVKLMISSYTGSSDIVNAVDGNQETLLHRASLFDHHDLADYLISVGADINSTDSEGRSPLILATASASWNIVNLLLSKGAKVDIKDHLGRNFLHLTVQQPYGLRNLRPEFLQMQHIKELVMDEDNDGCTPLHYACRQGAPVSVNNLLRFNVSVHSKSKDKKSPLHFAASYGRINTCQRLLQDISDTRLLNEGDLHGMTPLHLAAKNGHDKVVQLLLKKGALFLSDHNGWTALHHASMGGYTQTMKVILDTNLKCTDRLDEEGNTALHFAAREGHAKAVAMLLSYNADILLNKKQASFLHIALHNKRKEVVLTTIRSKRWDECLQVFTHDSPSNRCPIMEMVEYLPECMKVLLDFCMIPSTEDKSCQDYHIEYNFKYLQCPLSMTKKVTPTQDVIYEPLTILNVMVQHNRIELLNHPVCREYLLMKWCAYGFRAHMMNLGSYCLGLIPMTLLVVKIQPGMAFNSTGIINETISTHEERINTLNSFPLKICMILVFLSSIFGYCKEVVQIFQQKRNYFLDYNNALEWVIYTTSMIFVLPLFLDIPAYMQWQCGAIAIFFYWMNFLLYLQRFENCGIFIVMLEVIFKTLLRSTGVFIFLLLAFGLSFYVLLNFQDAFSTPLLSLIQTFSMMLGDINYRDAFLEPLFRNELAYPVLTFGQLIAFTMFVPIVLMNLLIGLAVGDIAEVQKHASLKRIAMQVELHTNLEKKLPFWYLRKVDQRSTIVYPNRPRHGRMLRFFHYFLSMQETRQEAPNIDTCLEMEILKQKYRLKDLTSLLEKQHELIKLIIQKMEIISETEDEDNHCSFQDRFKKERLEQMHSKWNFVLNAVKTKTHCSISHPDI
As to the kind of experiment: 45Calcium uptake assay: inhibition of AITC induced cellular uptake of radioactive calcium, rat TRPA1 expressing CHO cells. The class given is cell-based. The conditions noted are these: AITC 10 μM; for inhibition at 10 µM: 10.0 μM compound, read-out: rat TRPA1 Percentage inhibition at 10.0 μM; for inhibition at 1 µM: read-out: rat TRPA1 Percentage inhibition; for IC50: class symbols. As to the method:
as §1, §2
Test compounds were dissolved in 100% DMSO to prepare 10 mM stock and then diluted using plain medium with 0.1% BSA and 1.8 mM CaCl2 to get the desired concentration. The final concentration of DMSO in the reaction was 0.5% (v/v). […] Rat TRPA1 expressing CHO cells were grown in F-12 DMEM medium with 10% FBS, 1% penicillin-streptomycin solution, and 400 μg/ml of Zeocin. […] Cells were treated with the test compounds for 10 minutes followed by the addition of AITC at a final concentration of 30 μM (for human TRPA1) and/or 10 μM (for rat TRPA1) and 5 μCi/ml ^45Ca^+2 for 3 minutes. Cells were washed and lysed using a buffer containing 1% Triton X-100, 0.1% deoxycholate and 0.1% SDS. Radioactivity in the lysate was measured in a Packard TopCount after addition of liquid scintillant.
as §3

Each structure is given as a SMILES string.

Turning to `Cn1c(=O)c2c(CC(=O)Nc3ccc(Oc4ccc(C(F)(F)F)cc4)cc3)coc2n(C)c1=O` [Example 1, N1-[4-(4-Trifluoromethylphenoxy)phenyl]-2-(1,3-dimethyl-2,4-dioxo-1,2,3,4-tetrahydrofuro[2,3-d]pyrimidin-5-yl)acetamide], the IC50 on human TRPA1 (class symbols) is above 100 nM. Further, on rat TRPA1, the inhibition at 10 µM was determined as 100% and the inhibition at 1 µM came to 96.7%.

As to `Cn1c(=O)c2c(CC(=O)NCCc3ccc(Cl)cc3Cl)coc2n(C)c1=O` [Example 2, N1-[2-(2,4-Dichlorophenyl)ethyl]-2-(1,3-dimethyl-2,4-dioxo-1,2,3,4-tetrahydrofuro[2,3-d]pyrimidin-5-yl)acetamide], at human TRPA1, the inhibition at 1 µM turned out to be 17.7% and the inhibition at 10 µM was determined as 28.4%.

Consider `Cn1c(=O)c2c(CC(=O)Nc3nc(C(F)(F)F)cs3)coc2n(C)c1=O` [Example 3, N1-[4-(Trifluoromethyl)-1,3-thiazol-2-yl]-2-(1,3-Dimethyl-2,4-dioxo-1,2,3,4-tetrahydrofuro[2,3-d]pyrimidin-5-yl)acetamide], for which, at human TRPA1, the inhibition at 1 µM came to 6.44% and the inhibition at 10 µM came to 45.8%.

Regarding `Cn1c(=O)c2c(CC(=O)Nc3nc4c(F)cc(F)cc4s3)coc2n(C)c1=O` [Example 4, N-(4,6-Difluoro-1,3-benzothiazol-2-yl)-2-(1,3-dimethyl-2,4-dioxo-1,2,3,4-tetrahydrofuro[2,3-d]pyrimidin-5-yl)acetamide], at human TRPA1, the inhibition at 1 µM was 14.5% and the inhibition at 10 µM amounted to 57.3%.

On to `CC(C)Cc1ccc(-c2csc(NC(=O)Cc3coc4c3c(=O)n(C)c(=O)n4C)n2)cc1` [Example 5, N1-[4-(4-Isobutylphenyl)-1,3-thiazol-2-yl]-2-(1,3-dimethyl-2,4-dioxo-1,2,3,4-tetrahydrofuro[2,3-d]pyrimidin-5-yl)acetamide], for which, on human TRPA1, the inhibition at 1 µM amounted to 27% and the inhibition at 10 µM stood at 99.8%.

`Cn1c(=O)c2c(CC(=O)Nc3nc(-c4ccc(C(F)(F)F)cc4)cs3)coc2n(C)c1=O` [Example 6, N1-{4-[4-(Trifluoromethyl)phenyl]-1,3-thiazol-2-yl}-2-(1,3-dimethyl-2,4-dioxo-1,2,3,4-tetrahydrofuro[2,3-d]pyrimidin-5-yl)acetamide]: on human TRPA1, the inhibition at 1 µM is 100% and the inhibition at 10 µM is 99.6%. The IC50 on human TRPA1 (class symbols) is below 50 nM.

Turning to `Cn1c(=O)c2c(CC(=O)Nc3nc(-c4cccc(C(F)(F)F)c4)cs3)coc2n(C)c1=O` [Example 7, N1-{4-[3-(Trifluoromethyl)phenyl]-1,3-thiazol-2-yl}-2-(1,3-dimethyl-2,4-dioxo-1,2,3,4-tetrahydrofuro[2,3-d]pyrimidin-5-yl)acetamide], on human TRPA1, the inhibition at 1 µM worked out at 98.8% and the inhibition at 10 µM came to 99.8%. In addition, the IC50 at human TRPA1 (class symbols) is below 50 nM.

For `Cn1c(=O)c2c(CC(=O)Nc3nc(-c4ccc(OC(F)(F)F)cc4)cs3)coc2n(C)c1=O` [Example 8, N1-[4-(4-Trifluorormethoxyphenyl)-1,3-thiazol-2-yl]-2-(1,3-dimethyl-2,4-dioxo-1,2,3,4-tetrahydrofuro[2,3-d]pyrimidin-5-yl)acetamide], at human TRPA1, the inhibition at 1 µM worked out at 93.2% and the inhibition at 10 µM was 98.8%. Besides, the half-maximal inhibitory concentration (IC50) on human TRPA1 (class symbols) is below 50 nM. In addition, at rat TRPA1, the inhibition at 10 µM came out at 100%, the inhibition at 1 µM came to 100% and the IC50 is below 50 nM.

For the molecule `Cn1c(=O)c2c(CC(=O)Nc3nc(-c4cccc(OC(F)(F)F)c4)cs3)coc2n(C)c1=O` [Example 9, N1-[4-(3-Trifluorormethoxyphenyl)-1,3-thiazol-2-yl]-2-(1,3-dimethyl-2,4-dioxo-1,2,3,4-tetrahydrofuro[2,3-d]pyrimidin-5-yl)acetamide], at human TRPA1, the inhibition at 1 µM came to 99.3% and the inhibition at 10 µM was found to be 100%. For the same molecule, the half-maximal inhibitory concentration (IC50) on human TRPA1 (class symbols) was below 50 nM.

As to `Cn1c(=O)c2c(CC(=O)Nc3nc(-c4ccc(F)c(Br)c4)cs3)coc2n(C)c1=O` [Example 10, N1-[4-(3-Bromo-4-fluorophenyl)-1,3-thiazol-2-yl]-2-(1,3-dimethyl-2,4-dioxo-1,2,3,4-tetrahydrofuro[2,3-d]pyrimidin-5-yl)acetamide], on human TRPA1, the inhibition at 1 µM amounted to 98.5% and the inhibition at 10 µM worked out at 97.7%. The 50% inhibitory concentration (IC50) at human TRPA1 (class symbols) was below 50 nM. At rat TRPA1, the inhibition at 10 µM worked out at 100%, the inhibition at 1 µM turned out to be 97.5% and the IC50 is 50 to 100 nM.

For `Cn1c(=O)c2c(CC(=O)Nc3nc(-c4ccc(F)c(F)c4)cs3)coc2n(C)c1=O` [Example 11, N1-[4-(3,4-Difluorophenyl)-1,3-thiazol-2-yl]-2-(1,3-dimethyl-2,4-dioxo-1,2,3,4-tetrahydrofuro[2,3-d]pyrimidin-5-yl)acetamide], on human TRPA1, the inhibition at 1 µM was 98.8% and the inhibition at 10 µM is 99.4%. The IC50 at human TRPA1 (class symbols) fell in the range of 50 to 100 nM.

As for `Cn1c(=O)c2c(CC(=O)Nc3nc(-c4ccc(F)cc4F)cs3)coc2n(C)c1=O` [Example 12, N1-[4-(2,4-Difluorophenyl)-1,3-thiazol-2-yl]-2-(1,3-dimethyl-2,4-dioxo-1,2,3,4-tetrahydrofuro[2,3-d]pyrimidin-5-yl)acetamide], on human TRPA1, the inhibition at 1 µM is 97.9% and the inhibition at 10 µM stood at 98.4%. Further, the 50% inhibitory concentration (IC50) on human TRPA1 (class symbols) was above 100 nM.

As for `Cn1c(=O)c2c(CC(=O)Nc3nc(-c4ccc(OC(F)F)c(Br)c4)cs3)coc2n(C)c1=O` [Example 25, N1-[4-(3-Bromo-4-difluoromethoxyphenyl)-1,3-thiazol-2-yl]-2-(1,3-dimethyl-2,4-dioxo-1,2,3,4-tetrahydrofuro[2,3-d]pyrimidin-5-yl)acetamide], on human TRPA1, the inhibition at 1 µM came to 99.3% and the inhibition at 10 µM was found to be 99.8%. For the same molecule, at human TRPA1 (class symbols), the half-maximal inhibitory concentration (IC50) is below 50 nM.

With `CC(C)COc1ccc(-c2csc(NC(=O)Cc3coc4c3c(=O)n(C)c(=O)n4C)n2)cc1Br` [Example 29, N1-[4-(3-Bromo-4-isobutoxyphenyl)-1,3-thiazol-2-yl]-2-(1,3-dimethyl-2,4-dioxo-1,2,3,4-tetrahydrofuro[2,3-d]pyrimidin-5-yl)acetamide], on human TRPA1, the inhibition at 1 µM came out at 98.6% and the inhibition at 10 µM came to 99.8%. Also, the IC50 on human TRPA1 (class symbols) is above 100 nM.

Regarding `Cn1c(=O)c2c(CC(=O)Nc3nc(-c4cc(F)c(F)cc4F)cs3)coc2n(C)c1=O` [Example 33, N1-[4-(2,4,5,-Trifluorophenyl)-1,3-thiazol-2-yl]-2-(1,3-dimethyl-2,4-dioxo-1,2,3,4-tetrahydrofuro[2,3-d]pyrimidin-5-yl)acetamide], on human TRPA1, the inhibition at 1 µM worked out at 97.9% and the inhibition at 10 µM worked out at 98.1%. Moreover, the IC50 at human TRPA1 (class symbols) was below 50 nM.

Consider `CC(C)CCOc1c(F)cc(-c2csc(NC(=O)Cc3coc4c3c(=O)n(C)c(=O)n4C)n2)cc1F` [Example 45, N1-{4-[3,5-Difluoro-4-(3-methylbutoxy)phenyl]-1,3-thiazol-2-yl}-2-(1,3-dimethyl-2,4-dioxo-1,2,3,4-tetrahydrofuro[2,3-d]pyrimidin-5-yl)acetamide], for which, on human TRPA1, the inhibition at 1 µM was found to be 90.7% and the inhibition at 10 µM amounted to 98.1%. In addition, the half-inhibitory concentration (IC50) at human TRPA1 (class symbols) was below 50 nM.

For `Cc1oc2c(c1CC(=O)Nc1nc(-c3cc(F)c(Cl)cc3Cl)cs1)c(=O)n(C)c(=O)n2C` [Example 79, N1-[4-(2,4-Dichloro-5-fluorophenyl)-1,3-thiazol-2-yl]-2-(1,3,6-trimethyl-2,4-dioxo-1,2,3,4-tetrahydrofuro[2,3-d]pyrimidin-5-yl)acetamide], at human TRPA1 (numeric values), the IC50 worked out at 247 nM.
